This experiment has as its target T1, Heme oxygenase 2 (HMOX2) (Homo sapiens, UniProt P30519).
T1 construct: endogenous in cells; host or cells: MCF7
Nature of the experiment: In situ competitive profiling in live MCF7 cells (LFQ): HMOX2. It counts as cell-based. As to conditions: protein HMOX2, 4 h, then 10 µM 24c, n=4. The source says:
In our efforts to determine the direct molecular targets of deoxyelephantopin we first performed a gel-based competitive in situ proteomic profiling assay[41] […] While the greater conformational flexibility of probe 24c could potentially lead to more promiscuous target engagement relatively to deoxyelephantopin, it was favoured based on the fact that an alkyne moiety appended to the rigid scaffold of deoxyelephantopin may hinder some of its interactions. MCF7 cells were pretreated with various concentrations of deoxyelephantopin for 4 h, harvested, lysed and the lysates were treated with the fluorogenic probe 24c-Cy3 (10 μM; Supplementary Fig. 10). […] Furthermore, cells were pretreated with 20 μM concentration of deoxyelephantopin or 24c and the proteomic profiles were compared (Fig. 6b, Supplementary Fig. 11). Multiple bands were detected that were equally competed by both DEP and 24c, thus again confirming that 24c can be used as an acceptable clickable analogue of deoxyelephantopin in pulldown assays. Having established the optimal labelling conditions by SDS–PAGE, we next carried out a mass spectrometry-based competitive profiling assay[42] coupled with the method of stable isotope labelling of amino acids in culture (SILAC)[43]. […]
Figure 6 Proteome-wide identification of deoxyelephantopin targets. […] Quantification was performed using label-free quantification (LFQ) method (n=4). […]

One molecule from publication PMC4992173, “Divergent synthesis and identification of the cellular targets of deoxyelephantopins” (Nature Communications, 2016) can be followed below.

T1 sequence (P30519 whole entry): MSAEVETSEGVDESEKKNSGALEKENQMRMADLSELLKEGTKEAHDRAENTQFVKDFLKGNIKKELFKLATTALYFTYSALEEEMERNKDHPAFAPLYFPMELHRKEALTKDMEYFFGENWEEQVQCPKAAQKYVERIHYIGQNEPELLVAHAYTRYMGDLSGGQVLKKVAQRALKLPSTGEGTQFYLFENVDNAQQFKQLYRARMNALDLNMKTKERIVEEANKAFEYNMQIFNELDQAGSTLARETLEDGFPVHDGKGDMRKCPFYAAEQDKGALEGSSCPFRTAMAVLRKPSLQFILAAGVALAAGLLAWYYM

As to `C=C(C)C(=O)O[C@H]1CC2=C[C@@H](C/C(C)=C/[C@H]3OC(=O)C(=C)[C@H]13)OC2=O` [deoxyelephantopin], the “LFQ ratio 20 µM Deoxyelephantopin/DMSO with 24c” value is reported as 0.14.
